Measured values from patent publication US4870175A, “6-substituted alkoxy-2-oxo-1,2-dihydroquinoxaline derivatives” (Toyo Jozo Kabushiki Kaisha, priority 1987, dated 1989).
Where two headings read alike, the source gives them in different places.

Columns and labels:
[1] = test system: cyclic AMP/phosphodiesterase; test: Inhibitory action of cyclic AMP/phosphodiesterase (crude enzyme fraction from sonicated rabbit platelets); assay type: biochemical; settings: 40 min
Procedure: The pharmacological activity of the present compounds [1] is illustrated below. (1) Inhibitory action of cyclic AMP/phosphodiesterase:
A mixture of 2 mM MgCl2 /40 mM Tris-buffer (pH 7.5) 700 μl, enzyme solution (a crude enzyme fraction obtained from sonicated rabbit platelets) 100 μl, and a test sample solution (compound [1] dissolved in 50% aqueous methanol) 100 μl is incubated at 30° C. for 5 mins. 3', 5'-cyclic AMP 100 μl (50 μg) is added thereto and the mixture is further incubated for 40 mins. The reaction is stopped by heating 100° C. for 5 mins. The amount of 5'-AMP in the supernatant obtained by centrifugation at 3000 rpm for 5 mins. is measured using HPLC.
As shown in that table, the compound of the present invention has cyclic AMP/phosphodiesterase inhibitory activity at 1-10 μg/ml.

[2] = test system: rabbit platelet-rich plasma; test: Platelet aggregation inhibition (rabbit platelet-rich plasma, aggregometer); assay type: cell-based; settings: Oryctolagus cuniculus, compound final concentration 10 μM, read-out: Inhibitory ratio
Procedure: (2) Platelet aggregation inhibition:
A rabbit platelet-rich plasma (5×10^5 /mm^3), to which was added 1/10 volume of a 3.8% sodium citrate solution, 216 μl, is incubated in an aggregometer at 37° C., 1000 rpm, for 3 mins. A test sample solution 12 μl (final concentration 10 μM) is added thereto and the mixture is further incubated for 3 mins., and collagen (aggregation agent) 2.5 μg/ml, ADP 2.5 μM, platelet activating factor (PAF) 0.05 μg/ml or 0.25 mM arachidonic acid (A.A.) 12 μl is added thereto as an aggregating agent, and the platelet aggregation activity is measured.

[3] = aggregating agent PAF 0.05 μg/ml
[4] = aggregating agent arachidonic acid (A.A.) 0.25 mM
[5] = aggregating agent collagen 2.5 μg/ml

Row | SMILES | Inhibitory ratio ([1]; 1 μg/ml) [%] | Inhibitory ratio ([1]; 10 μg/ml) [%] | Inhibitory ratio ([1]; 100 μg/ml) [%] | inhibition at 10 µM [2, 3] [%] | inhibition at 10 µM [2, 4] [%] | inhibition at 10 µM [2, 5] [%] | inhibition at 10 µM ([2]; aggregating agent ADP 2.5 μM) [%]
1 | O=C1CNc2cc(OCCCCc3nnnn3C3CCCCC3)ccc2N1 [Compound 931, 6-[4-(1-cyclohexyltetrazole-5-yl)-butoxy]-2-oxo-1,2,3,4-tetrahydroquinoxaline] | 25.3 | 74.3 | 86.4 | 44.3 | 34 | 65.2 | 
2 | CN(C(=O)CCCOc1ccc2[nH]c(=O)cnc2c1)C1CCCCC1 [Compound 896] | 25.5 | 71.5 | 91.0 | 37.1 | 31.1 | 59.2 | 37.2
3 | CCc1nc2cc(OCCCC(=O)N(CCO)C3CCCCC3)ccc2[nH]c1=O [Compound 972] | 84.4 | 93.4 |  | 56.3 | 48.7 | 70.5 | 63.6
4 | CCN(C(=O)CCCOc1ccc2[nH]c(=O)cnc2c1)C1CCCCC1 [Compound 915] | 37.2 | 77.7 | 85.1 | 36 | 30.4 | 63.2 | 41
5 | CCCc1nc2cc(OCCCC(=O)OCC)ccc2[nH]c1=O [Compound 947] | 66.9 | 90.1 |  | 27.5 | 19.6 | 39.5 | 59.5
6 | Cc1nc2cc(OCCCC(=O)N(CCO)C3CCCCC3)ccc2[nH]c1=O [Compound 966] | 54.5 | 86.6 | 93.7 |  |  | 83.5 | 
